Measurements published in patent US20230148299A1, “FEM1B PROTEIN BINDING AGENTS AND USES THEREOF” (The Regents Of The University Of California, priority 2020, published 2023).

How the values were obtained:
[1] = biological target: T1, BRD4 (Homo sapiens, UniProt O60885); test: BRD4 degradation by Western blot in 231MFP breast cancer cells; assay type: cell-based; conditions: 231MFP cells, NJH-01-106 12 hours, MZ1 4 hours
T1 construct: endogenous in cells; host or cells: 231MFP breast cancer cells
Procedure: 231MFP breast cancer cells were treated for 12 hours with NJH-01-106, and 4 hours with known BRD4 PROTAC MZ1. BRD4 and loading control GAPDH levels were assessed by Western blotting following treatment with NJH-01-106 or MZ1, as described above, and are shown in FIG. 4.
Western Blot Protocol. Proteins were resolved by SDS-PAGE (4-20% TGX gels, Bio-Rad Laboratories, Inc.) and transferred to nitrocellulose membranes using the Trans-Blot Turbo transfer system (Bio-Rad). Membranes were blocked with 5% BSA in Tris-buffered saline containing Tween 20 (TBST) solution for 1 h at room temperature, washed in TBST and probed with primary antibody diluted in diluent, as recommended by the various manufacturers, overnight at 4° C. Primary antibodies used were: BRD4 (Cell Signaling Technologies #13440), GAPDH (ProteinTech 60004-1-Ig), FEM1B (ProteinTech 19544-1-AP). Following washes with TBST, the blots were incubated in the dark with secondary antibodies purchased from Li-Cor Biosciences and used at 1:10,000 dilution in 5% BSA in TBST at room temperature for 1 h. Blots were visualized using an Odyssey Li-Cor scanner after additional washes. Protein intensity was quantified using ImageJ software.

[2] = biological target: FEM1B-FNIP1 (Homo sapiens, UniProt Q9UK73); test: Fluorescence polarization between FEM1B and FNIP1 (covalent ligand screen); assay type: binding; conditions: DMSO = 100, FP between FEM1B and FNIP1; for remaining activity at 5 µM: compound at 5 μM, read-out: Normalized FP 5 μM; for activity at 50 µM: compound at 50 μM, read-out: Normalized FP 50 μM
Sequence of FEM1B-FNIP1 (Q9UK73 whole entry): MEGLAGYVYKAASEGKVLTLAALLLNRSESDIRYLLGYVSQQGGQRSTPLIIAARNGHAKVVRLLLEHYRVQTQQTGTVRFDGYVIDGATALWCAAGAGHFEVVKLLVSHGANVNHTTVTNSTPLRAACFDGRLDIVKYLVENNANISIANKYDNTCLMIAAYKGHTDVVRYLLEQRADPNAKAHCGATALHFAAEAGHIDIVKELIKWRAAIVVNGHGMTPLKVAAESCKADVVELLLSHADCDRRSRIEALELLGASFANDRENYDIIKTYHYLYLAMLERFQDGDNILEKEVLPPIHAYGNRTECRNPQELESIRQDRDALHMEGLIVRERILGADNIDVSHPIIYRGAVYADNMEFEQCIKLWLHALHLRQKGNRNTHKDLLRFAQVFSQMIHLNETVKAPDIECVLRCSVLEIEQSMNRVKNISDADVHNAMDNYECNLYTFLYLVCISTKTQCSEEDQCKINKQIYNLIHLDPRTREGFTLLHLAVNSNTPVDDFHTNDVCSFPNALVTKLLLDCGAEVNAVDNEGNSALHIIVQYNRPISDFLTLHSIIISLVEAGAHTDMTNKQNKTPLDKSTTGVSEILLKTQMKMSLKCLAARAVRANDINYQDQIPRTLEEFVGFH
From the text: FIG. 11. Fluorescence polarization screen to identify functional FEM1B-FNIP1-targeting covalent ligands.
(§1) FEM1B binds a conserved central degron in FNIP1. Deletion analysis of FNIP1 identifies a stretch of 20 amino acids that is required for its binding to FEM1B and its proteasomal degradation. FNIP1 variants were expressed in cells and tested for interaction with ^FLAGFEM1B by co-immunoprecipitation, and for degradation by measuring their abundance in the presence or absence of FEM1B. The FNIP1 degron is required for FEM1B binding and proteasomal degradation. […] FEM1B variants were immunoprecipitated and bound FNIP1 and FLCN were detected by Western blotting. The FNIP1 degron is sufficient to mediate FEM1B-dependent degradation. The FNIP1 degron was fused to GFP (GFP^degron) and expressed from the same plasmid as an IRES controlled mCherry. mCherry provides normalization for GFP fluorescence in each cell. […] Levels of GFP^degron and mCherry were determined by FACS, and their ratio is depicted for presence or absence of FEM1B variants. Deletion of FEM1B prevents FNIP1-degron dependent degradation. The FEM1B locus was deleted in 293T cells using CRISPR/Cas9. Cells were transfected with the GFP^degron/mCherry reporter, and analyzed for GFP and mCherry fluorescence by FACS. FEM1B directly binds the FNIP1 degron in vitro. A TAMRA-labeled FNIP1 degron peptide was incubated with purified FEMIB or the control CRL1 adaptor FBXL17, and binding was measured by fluorescence polarization of the peptide. The FNIP1 degron is sufficient to mediate CUL2^FEM1B-dependent ubiquitylation. The TAMRA-labeled FNIP1 degron was incubated with recombinant CUL2^FEM1B (unmodified or NEDD8-modified), E1, ubiquitin, ATP and the E2 enzymes UBE2D3 and/or UBE2R1. Ubiquitylation was monitored by gel electrophoresis and fluorescence detection.

[3] = tested on: GFP-Fnip1 degron reporter; test: GFP-Fnip1 degron reporter (GFP/mCherry) by flow cytometry; assay type: cell-based; conditions: GFP/mCherry ratio by FACS
Procedure: HEK293T cells were transfected 24 hours before flow cytometery with the GFP-Fnip1 degron reporter+/−Fem1b.
FNIP1 variants were expressed in cells and tested for interaction with ^FLAGFEM1B by co-immunoprecipitation, and for degradation by measuring their abundance in the presence or absence of FEM1B. […] FEM1B variants were immunoprecipitated and bound FNIP1 and FLCN were detected by Western blotting. […] The FNIP1 degron was fused to GFP (GFP^degron) and expressed from the same plasmid as an IRES controlled mCherry. mCherry provides normalization for GFP fluorescence in each cell. […] Levels of GFP^degron and mCherry were determined by FACS, and their ratio is depicted for presence or absence of FEM1B variants. […] Cells were transfected with the GFP^degron/mCherry reporter, and analyzed for GFP and mCherry fluorescence by FACS. […] A TAMRA-labeled FNIP1 degron peptide was incubated with purified FEMIB or the control CRL1 adaptor FBXL17, and binding was measured by fluorescence polarization of the peptide. […] The TAMRA-labeled FNIP1 degron was incubated with recombinant CUL2^FEM1B (unmodified or NEDD8-modified), E1, ubiquitin, ATP and the E2 enzymes UBE2D3 and/or UBE2R1. Ubiquitylation was monitored by gel electrophoresis and fluorescence detection.

[4] = biological target: FEM1B (Homo sapiens, UniProt Q9UK73); test: Fluorescence polarization binding of TAMRA-labeled FNIP1 degron peptide to recombinant FEM1B; conditions: degron peptide treated with agent
Sequence of FEM1B (Q9UK73 whole entry): as above
From the text: as §1, with “The FEM1B locus was deleted in 293T cells using CRISPR/Cas9.” left out, “FEM1B directly binds the FNIP1 degron in vitro.” left out, “The FNIP1 degron is sufficient to mediate CUL2^FEM1B-dependent ubiquitylation. The TAMRA-labeled FNIP1 degron was incubated with recombinant CUL2^FEM1B (unmodified or NEDD8-modified), E1, ubiquitin, ATP and the E2 enzymes UBE2D3 and/or UBE2R1.” left out, “detection. […]” for “detection.”

Row | degradation of BRD4 [1] | remaining activity at 5 µM [2] [%] | activity at 50 µM [2] [%] | Compound | stability of GFP^degron reporter [3] | recognition of FNIP1 degron by FEM1B after treatment of degron with Cys-modifying agent [4]
1 | degradation of BRD4 | – | – | Cc1sc2c(c1C)C(c1ccc(Cl)cc1)=N[C@@H](CC(=O)NCCCCCNC(=O)CN1CCOc3cc(N(CCC#N)C(=O)CCl)ccc31)c1nnc(C)n1-2 [EN106 linked to BRD4 inhibitor JQ1, (S)-2-chloro-N-(4-(2-((5-(2-(4-(4-chlorophenyl)-2,3,9-trimethyl-6H-thieno[3,2-f][1,2,4]triazolo[4,3-a][1,4]diazepin-6-yl)acetamido)pentyl)amino)-2-oxoethyl)-3,4-dihydro-2H-benzo[b][1,4]oxazin-7-yl)-N-(2-cyanoethyl)acetamide] | – | –
2 | – | 97.8 | 19.1 | C=CCOc1ccccc1CN(C(=O)CCl)c1ccc2c(c1)OCCO2 [EN-NJH-001] | – | –
3 | – | 40.1 | 8.82 | CCOc1ccc(N(CCC#N)C(=O)CCl)cc1 [EN-NJH-002] | – | –
4 | – | 54.1 | 2.7 | N#CCCN(C(=O)CCl)c1cccc(Cl)c1 [EN-NJH-003] | – | –
5 | – | 76.1 | 11.8 | CCN(C(=O)CCl)c1ccc2c(c1)OCO2 [EN-NJH-004] | – | –
6 | – | 98.1 | 101 | CC(Cl)C(=O)Nc1ccc2c(c1)OCCO2 (stereo not drawn) [EN-NJH-005] | – | –
7 | – | 89.7 | 21.5 | C=CCOc1ccccc1CN(C(=O)CCl)c1ccc2c(c1)OCO2 [EN-NJH-006] | – | –
8 | – | 87.7 | 11.7 | O=C(CCl)Nc1cc2c(cc1Br)OCCO2 [EN-NJH-007] | – | –
9 | – | 97.9 | 113 | CC(Cl)C(=O)N(CCC#N)c1ccccc1 (stereo not drawn) [EN-NJH-008] | – | –
10 | – | 74.8 | 6 | O=C(CCl)N(Cc1cccs1)c1ccc2c(c1)OCCO2 [EN-NJH-009] | – | –
11 | – | 46.8 | 14.6 | N#CCCN(C(=O)CCl)c1ccccc1F [EN-NJH-010] | – | –
12 | – | 45.8 | 4.29 | Cc1ccc(N(CCC#N)C(=O)CCl)cc1 [EN-NJH-011] | – | –
13 | – | 90.4 | 24.8 | COc1ccccc1N(CCC#N)C(=O)CCl [EN-NJH-012] | – | –
14 | – | 93.1 | 21.3 | O=C(CCl)Nc1ccc2c(c1)OCCO2 [EN-NJH-013] | – | –
15 | – | 94.8 | 21.8 | O=C(CCl)Nc1cc2c(cc1Cl)OCCO2 [EN-NJH-014] | – | –
16 | – | 36.3 | 16.3 | N#CCCN(C(=O)CCl)c1ccc(F)cc1 [EN-NJH-015] | – | –
17 | – | 43.7 | 11.3 | Cc1ccc(N(CCC#N)C(=O)CCl)cc1C [EN-NJH-016] | – | –

Row | degradation of BRD4 [1] | remaining activity at 5 µM [2] [%] | activity at 50 µM [2] [%] | Compound | stability of GFP^degron reporter [3] | recognition of FNIP1 degron by FEM1B after treatment of degron with Cys-modifying agent [4]
18 | – | 63.7 | 17.4 | Cc1cc(C)cc(N(CCC#N)C(=O)CCl)c1 [EN-NJH-017] | – | –
19 | – | 16.4 | 12 | Cc1cc(N(CCC#N)C(=O)CCl)ccc1Cl [EN-NJH-018] | – | –
20 | – | 44.1 | 19.4 | N#CCCN(C(=O)CCl)c1ccccc1 [EN-NJH-019] | – | –
21 | – | 15.6 | 19.1 | COc1cc2c(cc1OC)N(C(=O)CCl)CC2 [EN-NJH-020] | – | –
22 | – | 86.4 | 26.8 | O=C(CCl)N(CC=Cc1ccccc1)c1ccc2c(c1)OCCO2 [EN-NJH-021] | – | –
23 | – | – | – | C#CCCCCNC(=O)CI [IAyne] | stabilizes GFP^degron in cells | –
24 | degradation of BRD4 | – | – | Cc1ncsc1-c1ccc(CNC(=O)[C@@H]2C[C@@H](O)CN2C(=O)[C@@H](NC(=O)COCCOCCOCCNC(=O)C[C@@H]2N=C(c3ccc(Cl)cc3)c3c(sc(C)c3C)-n3c(C)nnc32)C(C)(C)C)cc1 [MZ1, reference compound] | – | –
25 | – | – | – | CC(=O)N[C@@H](CS)C(=O)O [N-acetylcysteine] | does not affect the stability of the GFP^degron reporter | –
26 | – | – | – | CCN1C(=O)C=CC1=O [N-ethylmaleimide] | – | strongly inhibited its recognition by FEM1B
27 | – | 32.8 | 9.87 | CC(C)(C)OC(=O)N1CCOc2ccc(N(CCC#N)C(=O)CCl)cc21 [NJH-01-073] | – | –
28 | – | 31.3 | 14.2 | CC(=O)N1CCOc2ccc(N(CCC#N)C(=O)CCl)cc21 [NJH-01-085] | – | –
29 | – | 26.5 | 15.2 | CC(C)(C)OC(=O)CN1CCOc2cc(N(CCC#N)C(=O)CCl)ccc21 [NJH-01-093] | – | –
30 | – | 105 | 115 | C=CC(=O)N(CCC#N)c1ccc2c(c1)OCCO2 [NJH-01-098] | – | –
31 | – | 54.9 | 12.6 | COc1cccc(CN(C(=O)CCl)c2ccc3c(c2)OCCO3)c1 [SB-02-092] | – | –
32 | – | – | – | CC(C)C[C@H](NC(=O)[C@H](CCc1ccccc1)NC(=O)CN1CCOCC1)C(=O)N[C@@H](Cc1ccccc1)C(=O)N[C@@H](CC(C)C)C(=O)[C@@]1(C)CO1 [carfilzomib] | stabilizes the GFP^degron reporter | –
33 | – | – | – | NC(=O)CI [iodoacetamide] | – | strongly inhibited its recognition by FEM1B
34 | – | – | – | antimycin A | stabilized GFP^degron | –
